Laboratory results as given in ChEMBL document CHEMBL1153261, “Retro-Inverso Tripeptide Renin Inhibitors” (Bioorg Med Chem Lett, 1992).
Square brackets hold non-standard residues; d marks the D form. Peptide text beside a SMILES is read from it. * marks the point of attachment. Leu(ol) = CC(C)C[C@H](N)CO; Boc = CC(C)(C)OC(=O)*

Target: T1, Renin (Homo sapiens, UniProt P00797)
T1 sequence (P00797 whole entry): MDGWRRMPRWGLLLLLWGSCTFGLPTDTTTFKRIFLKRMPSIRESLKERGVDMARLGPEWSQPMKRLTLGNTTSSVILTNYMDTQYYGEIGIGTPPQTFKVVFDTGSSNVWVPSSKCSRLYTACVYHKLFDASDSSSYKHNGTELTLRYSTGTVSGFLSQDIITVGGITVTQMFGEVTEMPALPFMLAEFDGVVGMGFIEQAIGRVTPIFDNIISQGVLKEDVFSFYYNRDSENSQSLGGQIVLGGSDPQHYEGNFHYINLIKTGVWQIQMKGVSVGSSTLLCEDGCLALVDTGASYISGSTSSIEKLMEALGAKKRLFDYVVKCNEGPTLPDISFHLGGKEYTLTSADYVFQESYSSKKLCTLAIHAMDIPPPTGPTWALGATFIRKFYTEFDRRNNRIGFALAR
Assay: Compound was evaluated for inhibitory activity against renin
Conditions: read-out: I50

Compound | IC50
CC(C)C[C@@H](CO)C(=O)N[C@H](Cc1c[nH]cn1)C(=O)N[C@H](Cc1ccccc1)C(=O)NCC(C)(C)C | 20 µM
CC(C)C[C@@H](CO)NC(=O)[C@H](Cc1c[nH]cn1)C(=O)N[C@H](Cc1ccccc1)C(=O)NCC(C)(C)C | 1200 µM
CC(C)C[C@H](CO)C(=O)N[C@H](Cc1c[nH]cn1)C(=O)N[C@H](Cc1ccccc1)C(=O)NCC(C)(C)C | 80 µM
CC(C)C[C@@H](CO)NC(=O)[C@H](Cc1cnc[nH]1)NC(=O)[C@H](Cc1ccccc1)NC(=O)OC(C)(C)C (Boc-Phe-His-[Leu(ol)]) | 16 µM
